Patent US9399646B2 (Genentech, Inc., priority 2010, dated 2016)

How the values were obtained:
[1] = biological target: T1, ER-α in MCF-7 cells (Homo sapiens, UniProt P03372); test: Breast cancer cell ER-α in cell western assay (SP1); format: cell-based; set-up: endogenous in cells; host or cells: MCF-7; settings: 4 or 24 hr post compound addition; for Emax: MCF7, SP1 antibody, read-out: ER-α In Cell Western Assay (SP1) Max Response; for DC50: SP1 antibody, read-out: ER-α In Cell Western Assay (SP1) IC50
T1 sequence (P03372 1-595): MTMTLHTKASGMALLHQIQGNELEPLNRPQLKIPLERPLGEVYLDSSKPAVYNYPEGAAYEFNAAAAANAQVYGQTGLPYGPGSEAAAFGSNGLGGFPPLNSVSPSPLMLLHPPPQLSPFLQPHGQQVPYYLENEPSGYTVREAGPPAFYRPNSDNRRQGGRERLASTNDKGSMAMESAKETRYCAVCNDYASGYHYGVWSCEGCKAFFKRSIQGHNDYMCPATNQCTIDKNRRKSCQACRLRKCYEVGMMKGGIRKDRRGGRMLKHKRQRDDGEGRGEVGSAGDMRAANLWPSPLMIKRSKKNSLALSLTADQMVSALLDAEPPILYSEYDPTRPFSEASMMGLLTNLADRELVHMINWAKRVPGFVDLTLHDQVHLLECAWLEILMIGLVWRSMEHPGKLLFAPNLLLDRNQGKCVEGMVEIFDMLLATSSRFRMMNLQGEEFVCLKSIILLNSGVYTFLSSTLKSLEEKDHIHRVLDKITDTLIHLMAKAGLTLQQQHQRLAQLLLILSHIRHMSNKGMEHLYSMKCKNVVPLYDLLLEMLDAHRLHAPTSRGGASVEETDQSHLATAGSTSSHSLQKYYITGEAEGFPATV
Protocol: MCF-7 cells were adjusted to a concentration of 200,000 cells per mL in RPMI containing 10% charcoal-stripped FBS and 20 mM HEPES. 16 microliters of the cell suspension (3200 cells) was added to each well of a poly-D-lysine 384 well plate, and the cells were incubated overnight to allow the cells to adhere. The following day an eleven point, serial semilog dilution of each compound was added to the cells in 16 μL at a final concentration ranging from 0.3-0.000003 μM. At 4 or 24 hr post compound addition, the cells were fixed (10% formalin in PBS) for 20 minutes. Cells were permeablized in PBS 0.1% Triton and blocked with LICOR blocking buffer (50 μl/well, 90°). The wells were then incubated overnight at 4° C. with SP1 rabbit monoclonal Ab (Thermo Scientific) diluted 1:1000 in LICOR blocking buffer/0.1% Tween-20. Wells which were treated with blocking buffer with Tween but no antibody were used as a background control. Wells were washed with 0.1% Tween-20/PBS and then incubated in goat anti-rabbit IRDye™ 800CW (LICOR Inc.; 1:1000) and DRAQ5 DNA dye (1:2000 for 2 mM stock) diluted in LICOR blocking buffer containing 0.1% Tween-20 and 0.01% SDS for 60 minutes. Cells were washed (50 μl/well, 5′ each) in 0.1% Tween-20/PBS. Plates were scanned on a LICOR Odyssey infrared imaging system. Integrated intensities in the 800 nm channel and 700 nm channel were measured to determine levels of ER and DNA respectively. Percent ER levels were determined as follows: (Integrated intensity 800 nm sample/integrated intensity 700 nm sample)/(Integrated intensity 800 nm untreated cells/integrated intensity 700 nm untreated cells)×100=% ER levels.

[2] = tested on: MCF-7 cells; test: Breast cancer cell viability assay (CellTiter-Glo, 5 days); format: cell-based; settings: 5 days' compound exposure; for IC50: Homo sapiens, MCF7, 120 h
Protocol: MCF-7 cells were adjusted to a concentration of 20,000 cells per mL in RPMI containing 10% FBS and 20 mM HEPES. 16 microliters of the cell suspension (320 cells) was added to each well of a 384 well plate, and the cells were incubated overnight to allow the cells to adhere. The following day an eleven point, serial semilog dilution of each compound was added to the cells in 16 μL at a final concentration ranging from 0.3-0.000003 μM. After 5 days' compound exposure, 16 μL of CellTiter-GLo (Promega, Madison Wis.) was added to the cells the relative luminescence units (RLUs) of each well was determined CellTiter-Glo added to 32 μL of medium without cells was used to obtain a background value. The Percent viability of each sample was determined as follows: (RLU sample-RLU background/RLU untreated cells-RLU background)×100=% viability.

SMILES	Emax [1] [%]	DC50 [1] [nM]	MCF7 Viability Assay Max Response [2]	IC50 [2] [nM]
CC/C(=C(/c1ccc(/C=C/c2nsc(=O)[nH]2)cc1)c1ccc2[nH]ncc2c1)c1ccc(F)cc1Cl [Compound 439, 3-((E)-4-((E)-2-(2-Chloro-4-fluorophenyl)-1-(1H-indazol-5-yl)but-1-en-1-yl)styryl)-1,2,4-thiadiazol-5(4H)-one]	≥ 40	≤ 100	++ (++ = a single % value ≧ 40%)	≤ 100
CC/C(=C(/c1ccc(/C=C/C(=O)O)cc1)c1ccc2c(cnn2-c2ccccc2)c1)c1ccccc1 [Compound 143, (E)-3-(4-((E)-2-Phenyl-1-(1-phenyl-1H-indazol-5-yl)but-1-en-1-yl)phenyl)acrylic acid]	≥ 40	> 100	++ (++ = a single % value ≧ 40%)	> 100
CC/C(=C(/c1ccc(OC[C@H](C)N2CC[C@@H](C)C2)cc1)c1ccc2[nH]ncc2c1)c1ccccc1Cl [Compound 330, 5-((E)-2-(2-Chlorophenyl)-1-(4-((S)-2-((R)-3-methylpyrrolidin-1-yl)propoxy)phenyl)but-1-en-1-yl)-1H-indazole]	≥ 40	≤ 100	++ (++ = a single % value ≧ 40%)	≤ 100
CC/C(=C(/c1ccc(/C=C/C(=O)O)cc1)c1cc(F)c2[nH]ccc2c1)c1ccc(F)cc1Cl [Compound 254, (E)-3-(4-((E)-2-(2-Chloro-4-fluorophenyl)-1-(7-fluoro-1H-indol-5-yl)but-1-en-1-yl)phenyl)acrylic acid]	≥ 40	≤ 100	++ (++ = a single % value ≧ 40%)	≤ 100
CC/C(=C(/c1ccc(/C=C/C(=O)O)cc1)c1ccc2scnc2c1)c1ccccc1Cl [Compound 280, (E)-3-(4-((E)-1-(Benzo[d]thiazol-5-yl)-2-(2-chlorophenyl)but-1-en-1-yl)phenyl)acrylic acid]	≥ 40	≤ 100	++ (++ = a single % value ≧ 40%)	≤ 100
CC/C(=C(/c1ccc(/C=C/C(=O)O)cc1)c1ccc2[nH]ncc2c1)c1cnsc1 [Compound 225, (E)-3-(4-((E)-1-(1H-Indazol-5-yl)-2-(isothiazol-4-yl)but-1-en-1-yl)phenyl)acrylic acid]	≥ 40	> 100	++ (++ = a single % value ≧ 40%)	> 100
CC/C(=C(/c1ccc(/C=C/C(=O)O)cc1)c1ccc2[nH]ncc2c1)c1ccc(Oc2cnccn2)cc1 [Compound 293, (E)-3-(4-((E)-1-(1H-Indazol-5-yl)-2-(4-(pyrazin-2-yloxy)phenyl)but-1-en-1-yl)phenyl)acrylic acid]	≥ 40	≤ 100	++ (++ = a single % value ≧ 40%)	≤ 100
CC/C(=C(/c1ccc(/C=C/C(=O)O)cc1)c1ccc2[nH]ncc2c1)c1ccc(S(=O)(=O)C(F)(F)F)cc1 [Compound 288]	≥ 40	≤ 100	++ (++ = a single % value ≧ 40%)	> 100
CC/C(=C(/c1ccc(/C=C/C(=O)O)cc1)c1ccc2ccccc2c1)c1ccccc1 [Compound 123, (E)-3-(4-((E)-1-(Naphthalen-2-yl)-2-phenylbut-1-en-1-yl)phenyl)acrylic acid]	≥ 40	≤ 100	++ (++ = a single % value ≧ 40%)	> 100
CC/C(=C(/c1ccc(/C=C/C(=O)O)cc1)c1ccc2[nH]ncc2c1)c1ccc(Cc2ccccc2)cc1 [Compound 317, (E)-3-(4-((E)-2-(4-Benzylphenyl)-1-(1H-indazol-5-yl)but-1-en-1-yl)phenyl)acrylic acid]	≥ 40	≤ 100	++ (++ = a single % value ≧ 40%)	≤ 100
O=C(O)/C=C/c1ccc(/C(=C(\c2ccccc2Cl)C2CC2)c2cccc3[nH]ncc23)cc1 [Compound 71, (E)-3-(4-((E)-2-(2-Chlorophenyl)-2-cyclopropyl-1-(1H-indazol-4-yl)vinyl)phenyl)acrylic acid]	≥ 40	≤ 100	++ (++ = a single % value ≧ 40%)	≤ 100
CC/C(=C(/c1ccc(/C=C/C(=O)O)cc1)c1ccc2[nH]ncc2c1)c1cccc(Oc2ncccn2)c1 [Compound 363, (E)-3-(4-((E)-1-(1H-Indazol-5-yl)-2-(3-(pyrimidin-2-yloxy)phenyl)but-1-en-1-yl)phenyl)acrylic acid]	≥ 40	≤ 100	++ (++ = a single % value ≧ 40%)	≤ 100
CC/C(=C(/c1ccc(/C=C/C(=O)O)cc1)c1ccc2[nH]ncc2c1F)c1ccc(Oc2ncccn2)cc1 [Compound 160, (E)-3-(4-((E)-1-(4-Fluoro-1H-indazol-5-yl)-2-(4-(pyrimidin-2-yloxy)phenyl)but-1-en-1-yl)phenyl)acrylic acid]	≥ 40	≤ 100	++ (++ = a single % value ≧ 40%)	≤ 100
CC/C(=C(/c1ccc(OC[C@H](C)N2CC[C@@H](C)C2)cc1)c1ccc2[nH]ncc2c1)c1ccccc1 [Compound 329, 5-((E)-1-(4-((S)-2-((R)-3-Methylpyrrolidin-1-yl)propoxy)phenyl)-2-phenylbut-1-en-1-yl)-1H-indazole]	≥ 40	≤ 100	++ (++ = a single % value ≧ 40%)	≤ 100
CC/C(=C(/c1ccc(/C=C/C(=O)O)cc1)c1ccc2[nH]ncc2c1F)c1ccncc1Cl [Compound 224, (E)-3-(4-((E)-2-(3-Chloropyridin-4-yl)-1-(4-fluoro-1H-indazol-5-yl)but-1-en-1-yl)phenyl)acrylic acid]	≥ 40	≤ 100	++ (++ = a single % value ≧ 40%)	≤ 100
CC/C(=C(/c1ccc(/C=C/C(=O)O)cc1)c1ccc2[nH]ncc2c1)c1ccc2cnn(C)c2c1 [Compound 258, (E)-3-(4-((E)-1-(1H-Indazol-5-yl)-2-(1-methyl-1H-indazol-6-yl)but-1-en-1-yl)phenyl)acrylic acid]	≥ 40	≤ 100	++ (++ = a single % value ≧ 40%)	> 100
CC/C(=C(/c1ccc(/C=C/C(=O)O)cc1)c1ccc2sncc2c1)c1ccccc1 [Compound 156, (E)-3-(4-((E)-1-(Benzo[d]isothiazol-5-yl)-2-phenylbut-1-en-1-yl)phenyl)acrylic acid]	≥ 40	> 100	++ (++ = a single % value ≧ 40%)	> 100
CC/C(=C(/c1ccc(OCCN2CCCC2)cc1)c1ccc2[nH]ncc2c1)c1ccccc1 [Compound 191, (E)-5-(2-Phenyl-1-(4-(2-(pyrrolidin-1-yl)ethoxy)phenyl)but-1-en-1-yl)-1H-indazole]	≥ 40	≤ 100	++ (++ = a single % value ≧ 40%)	≤ 100
